# Data as given in US20250090528A1, “USE OF COMPLEMENT FACTOR D INHIBITOR FOR TREATMENT OF LUPUS NEPHRITIS AND IMMUNOGLOBULIN A NEPHROPATHY” (Alexion Pharmaceuticals, Inc., priority 2021, published 2025).
# Read-outs that look alike come from different tables or passages of the source.
# Legend:
# [1] = Multiple ascending dose study: safety and safety margin versus NOAEL exposures from nonclinical chronic toxicology studies; assay type: in vivo, human; details: 120 and 200 mg BID
# Method: (§1) In addition, both dosage regimens provided complete (>90%) and sustained inhibition of AP activity throughout the 12-hour dosing interval. Therefore, 120 mg BID is selected as the minimum therapeutic dosage.
# [2] = Single-ascending and multiple-ascending dose clinical PK studies in healthy volunteers; assay type: in vivo, human
# Description: Clinical pharmacokinetics (PK) and PD data have been generated for ALXN2050 in single-ascending and multiple-ascending dose studies in healthy volunteers.
# [3] = test system: alternative pathway (AP) activity; assay: PD activity: AP inhibition in the AP Wieslab assay after multiple-dose administration in healthy participants; assay type: in vivo, human
# Method: The 120 mg BID dosing regimen provided sustained AP inhibition (AP activity <10%) in healthy participants whose ALXN2050 concentrations achieved the 90% inhibitory concentration (IC90) threshold through the 12-hour dosing periods. Therefore, 120 mg BID is selected as the minimum therapeutic dose. […] Therefore, the 180 mg BID is selected as the likely therapeutic dose.
# as §1
# lupus nephritis = details: LN patients, cited from earlier work
# [4] = NOAEL from nonclinical chronic toxicology studies
molecule,measurement,setting,value
CC(=O)c1nn(CC(=O)N2[C@H](C(=O)Nc3nc(Br)ccc3C)C[C@@]3(C)C[C@@H]23)c2ccc(-c3cnc(C)nc3)cc12 [ALXN2050],safety and efficacy of dose regimens,[1]; multiple ascending dose study,safe and effective
same,safety margin in AUC0-24 versus exposures at NOAEL,[1]; [4],≥ 10 fold
same,safety margin in maximum plasma concentration (Cmax) versus exposures at NOAEL,[1]; [4],≥ 10 fold
same,intersubject variability in PK,[2],Large intersubject variability
same,increase in systemic exposure with dose,"[2]; multiple-dose administration at steady state (Days 7 and 14), 40 mg BID to 200 mg BID",greater than dose-proportional increase
same,increase in systemic exposure with dose,[2]; single-dose administration,dose-proportional increase
same,inhibition of AP activity (complete and sustained),"[3]; 120 and 200 mg BID, throughout the 12-hour dosing interval",> 90%
same,activity at 120 mg,"[3]; Homo sapiens, 120 mg BID, participants whose concentrations achieved the IC90 threshold through the 12-hour dosing periods, read-out: AP activity (sustained AP inhibition)",< 10%
same,PD activity (AP inhibition in the AP Wieslab assay),"[3]; multiple-dose 40 mg BID to 200 mg BID, healthy participants",increased with increasing dose
C=C/C=C/C[C@@H](C)[C@@H](O)[C@H]1C(=O)N[C@@H](CC)C(=O)N(C)CC(=O)N(C)[C@@H](CC(C)C)C(=O)N[C@@H](C(C)C)C(=O)N(C)[C@@H](CC(C)C)C(=O)N[C@@H](C)C(=O)N[C@H](C)C(=O)N(C)[C@@H](CC(C)C)C(=O)N(C)[C@@H](CC(C)C)C(=O)N(C)[C@@H](C(C)C)C(=O)N1C [voclosporin],CRR,"lupus nephritis; at one year, placebo 22.5%",40.8%
belimumab: approved in the US for the treatment of LN,CRR,"lupus nephritis; at two years, placebo 20.0%",30.0%
